Experiment [1] deals with Rattus norvegicus. In words: Compound was tested for diarrheagenic activity in rats after intracolonic administration (I.C). Type of experiment: functional.
The test system of experiment [2] is Rattus norvegicus. In words: Compound was tested for diarrheagenic activity in rats after intragastric administration (I.G). Type of experiment: functional.
For experiment [3], the species on record is Rattus norvegicus. In words: Compound was tested for mucosal protective activity against indomethacin-induced gastric damage in rats. The class given is functional, Stomach.
Experiment [4] is filed under the species Rattus norvegicus. In words: Compound was tested for mucosal protective activity against indomethacin-induced intestinal damage in rats. The class given is functional.
The species entered for experiment [5] is Rattus norvegicus. Description: Compound was tested for mucosal protective activity in rats using 4 hr EtOH model. The class given is functional.
Experiment [6] has as its system Rattus norvegicus. In words: Compound was tested for diarrheagenic activity in rats after intrajejuna administration (I.J). The class given is functional.

Consider `CCCCC(C)(O)C/C=C/[C@H]1[C@H](O)CC(=O)[C@@H]1CCCCCCC(=O)OC` (stereo partly specified) [MISOPROSTOL], for which the ED50 was 97 (ug of misoprostol) kg-1 in the experiment with Rattus norvegicus [1]; 265 (ug of misoprostol) kg-1 in the experiment with Rattus norvegicus [2]; 14 (ug of misoprostol) kg-1 in the experiment filed under Rattus norvegicus [3]; 294 (ug of misoprostol) kg-1 in the experiment filed under Rattus norvegicus [4]; 525 (ug of misoprostol) kg-1 in the experiment filed under Rattus norvegicus [5]; 534 (ug of misoprostol) kg-1 with Rattus norvegicus [6].

The values are drawn from ChEMBL document CHEMBL1126983, “Catalytic functionalization of polymers: a novel approach to site specific delivery of misoprostol to the stomach” (1993).
